Measurements: ChEMBL document CHEMBL1152546, “N-[2-chloro-9H-purin-6-yl]-N-cyclopropylglycylamino acids and derivatives: synthesis, evaluation as a class of novel analgesics, and 3D QSAR analysis” (2009)

Experiments:
Mus musculus [1] = assay: Analgesic activity in ICR mouse assessed as pain threshold variation at 12.5 umol/kg, po administered as single dose measured after 180 mins by tail flick test relative to control; assay type: functional
Mus musculus [2] = assay: Analgesic activity in ICR mouse assessed as pain threshold variation at 25 umol/kg, po administered as single dose measured after 90 mins by tail flick test relative to control; assay type: functional
Mus musculus [3] = assay: Analgesic activity in ICR mouse assessed as pain threshold variation at 12.5 umol/kg, po administered as single dose measured after 150 mins by tail flick test relative to control; assay type: functional
Mus musculus [4] = assay: Analgesic activity in ICR mouse assessed as pain threshold variation at 25 umol/kg, po administered as single dose measured after 30 mins by tail flick test relative to control; assay type: functional
Mus musculus [5] = assay: Analgesic activity in ICR mouse assessed as pain threshold variation at 6.25 umol/kg, po administered as single dose measured after 120 mins by tail flick test relative to control; assay type: functional
Mus musculus [6] = assay: Analgesic activity in ICR mouse assessed as pain threshold variation at 12.5 umol/kg, po administered as single dose measured after 60 mins by tail flick test relative to control; assay type: functional
Mus musculus [7] = assay: Analgesic activity in ICR mouse assessed as pain threshold variation at 25 umol/kg, po administered as single dose measured after 150 mins by tail flick test relative to control; assay type: functional
Mus musculus [8] = assay: Analgesic activity in ICR mouse assessed as pain threshold variation at 6.25 umol/kg, po administered as single dose measured after 60 mins by tail flick test relative to control; assay type: functional
Mus musculus [9] = assay: Analgesic activity in ICR mouse assessed as pain threshold variation at 12.5 umol/kg, po administered as single dose measured after 30 mins by tail flick test relative to control; assay type: functional
Mus musculus [10] = assay: Analgesic activity in ICR mouse assessed as pain threshold variation at 6.25 umol/kg, po administered as single dose measured after 150 mins by tail flick test relative to control; assay type: functional
Mus musculus [11] = assay: Analgesic activity in ICR mouse assessed as pain threshold variation at 6.25 umol/kg, po administered as single dose measured after 90 mins by tail flick test relative to control; assay type: functional
Mus musculus [12] = assay: Analgesic activity in ICR mouse assessed as pain threshold variation at 6.25 umol/kg, po administered as single dose measured after 30 mins by tail flick test relative to control; assay type: functional
Mus musculus [13] = assay: Analgesic activity in ICR mouse assessed as pain threshold variation at 25 umol/kg, po administered as single dose measured after 60 mins by tail flick test relative to control; assay type: functional
Mus musculus [14] = assay: Analgesic activity in ICR mouse assessed as pain threshold variation at 25 umol/kg, po administered as single dose measured after 120 mins by tail flick test relative to control; assay type: functional
Mus musculus [15] = assay: Analgesic activity in po dosed ICR mouse assessed as pain threshold variation administered as single dose measured after 30 to 180 mins by tail flick test; assay type: functional, organism-based
Mus musculus [16] = assay: Analgesic activity in ICR mouse assessed as pain threshold variation at 12.5 umol/kg, po administered as single dose measured after 90 mins by tail flick test relative to control; assay type: functional
Mus musculus [17] = assay: Analgesic activity in ICR mouse assessed as pain threshold variation at 12.5 umol/kg, po administered as single dose measured after 120 mins by tail flick test relative to control; assay type: functional
Mus musculus [18] = assay: Analgesic activity in ICR mouse assessed as pain threshold variation at 25 umol/kg, po administered as single dose measured after 180 mins by tail flick test relative to control; assay type: functional
Mus musculus [19] = assay: Analgesic activity in ICR mouse assessed as pain threshold variation at 6.25 umol/kg, po administered as single dose measured after 180 mins by tail flick test relative to control; assay type: functional
Mus musculus [20] = assay: Analgesic activity in ICR mouse assessed as pain threshold variation at 20 umol/kg, ip administered as single dose measured after 120 mins by tail flick test relative to control; assay type: functional
Mus musculus [21] = assay: Analgesic activity in ICR mouse assessed as pain threshold variation at 20 umol/kg, ip administered as single dose measured after 60 mins by tail flick test relative to control; assay type: functional
Mus musculus [22] = assay: Analgesic activity in ICR mouse assessed as pain threshold variation at 20 umol/kg, ip administered as single dose measured after 150 mins by tail flick test relative to control; assay type: functional
Mus musculus [23] = assay: Analgesic activity in ICR mouse assessed as pain threshold variation at 20 umol/kg, ip administered as single dose measured after 30 mins by tail flick test relative to control; assay type: functional
Mus musculus [24] = assay: Analgesic activity in ICR mouse assessed as pain threshold variation at 20 umol/kg, ip administered as single dose measured after 180 mins by tail flick test relative to control; assay type: functional
Mus musculus [25] = assay: Analgesic activity in ICR mouse assessed as pain threshold variation at 20 umol/kg, ip administered as single dose measured after 90 mins by tail flick test relative to control; assay type: functional

Compound	Activity (Mus musculus [1]) [%]	Activity (Mus musculus [2]) [%]	Activity (Mus musculus [3]) [%]	Activity (Mus musculus [4]) [%]	Activity (Mus musculus [5]) [%]	Activity (Mus musculus [6]) [%]	Activity (Mus musculus [7]) [%]	Activity (Mus musculus [8]) [%]	Activity (Mus musculus [9]) [%]	Activity (Mus musculus [10]) [%]	Activity (Mus musculus [11]) [%]	Activity (Mus musculus [12]) [%]	Activity (Mus musculus [13]) [%]	Activity (Mus musculus [14]) [%]	Activity (Mus musculus [15])	Activity (Mus musculus [16]) [%]	Activity (Mus musculus [17]) [%]	Activity (Mus musculus [18]) [%]	Activity (Mus musculus [19]) [%]	also measured
N=C(N)NCCC[C@H](NC(=O)CN(c1nc(Cl)nc2[nH]cnc12)C1CC1)C(=O)O	5.24	27.59	6.93	45.41	9.52	39.76	7.19	17.53	22.24	5.09	12.08	8.9	50.97	17.03	Dose-dependent effect	18.43	10.28	5.19	2.15	
CC(C)[C@H](NC(=O)CN(c1nc(Cl)nc2[nH]cnc12)C1CC1)C(=O)OCc1ccccc1	4.58	51.32	5.43	33.43	9.26	26.47	17.91	13.94	15.95	3.07	11.83	7.69	55.49	27.33	Dose-dependent effect	23.59	14.96	12.93	3.22	
CC(C)C[C@H](NC(=O)CN(c1nc(Cl)nc2[nH]cnc12)C1CC1)C(=O)O	5.5	26.97	7.77	23.4	9.44	17.3	9.13	10.66	15.99	5.56	16.17	8.01	36.37	18.74	Dose-dependent effect	20.93	13.32	3.63	2.8	
NCCCC[C@H](NC(=O)CN(c1nc(Cl)nc2[nH]cnc12)C1CC1)C(=O)O	2.99	28.84	7.39	31.18	7.05	31.34	11.64	16.6	16.33	2.82	14.48	8.04	53.76	16.37	Dose-dependent effect	22.04	9.79	6.07	2.61	
O=C(CN(c1nc(Cl)nc2[nH]cnc12)C1CC1)NCC(=O)OCc1ccccc1	5.45	27.18	6.2	18.65	8.04	23.74	17.99	13.19	11.25	3.47	9.93	5.73	41.91	21.69	Dose-dependent effect	19	14.62	8.31	2.64	
NCCCC[C@H](NC(=O)CN(c1nc(Cl)nc2[nH]cnc12)C1CC1)C(=O)OCc1ccccc1	3.72	35.27	9.91	26.13	9.01	29.98	9.88	14.83	18.5	4.87	11.3	9.19	41.16	16.79	Dose-dependent effect	25.42	11.35	2.24	3.95	
CN1CC[C@]23c4c5ccc(O)c4O[C@H]2[C@@H](O)C=C[C@H]3[C@H]1C5 [MORPHINE]																				Activity (Mus musculus [20]): 64.9%; Activity (Mus musculus [21]): 177.6%; Activity (Mus musculus [22]): 36.7%; Activity (Mus musculus [23]): 147%; Activity (Mus musculus [24]): 32.9%; Activity (Mus musculus [25]): 122.7%
CSCC[C@H](NC(=O)CN(c1nc(Cl)nc2[nH]cnc12)C1CC1)C(=O)O		13.99		20.37			4.14						22.75	5.67				3.4		
O=C(CN(c1nc(Cl)nc2[nH]cnc12)C1CC1)N[C@@H](CCC(=O)OCc1ccccc1)C(=O)OCc1ccccc1		50		52.8			44.46						53.74	45.94				29.87		
O=C(CN(c1nc(Cl)nc2[nH]cnc12)C1CC1)N[C@@H](Cc1cnc[nH]1)C(=O)OCc1ccccc1		15.04		29.06			5.05						26.6	10.15				4.18		
O=C(CN(c1nc(Cl)nc2[nH]cnc12)C1CC1)N[C@@H](Cc1cnc[nH]1)C(=O)O		16.07		31.71			4.42						27.68	10.66				3.39		
